Measurements from PubChem BioAssay (NCI).
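Growth conditions: 96-well plates. Treatment: test compound, 48 hours, 5 concentrations. Analysis: linear interpolation between bracketing concentrations; unreached endpoints set to highest concentration. GI50: concentration for 50% inhibition of growth. Definition used: TGI = concentration required for complete inhibition of growth.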

test system: CCRF-CEM leukemia; assay: NCI tumour cell line growth inhibition, 48 h

Q: How did the TGI turn out when `COc1cccc(C2=NC(C(C)C)CO2)c1` (stereo not given) was run?
A: > 100 µM

Q: Which TGI does the source give for `Cc1c2c(C#N)nccc2c(C)c2c1c1ccccc1n2Cc1ccccc1` here?
A: > 100 µM

Q: `COc1ccc(-c2nn(-c3ccc(NC(=O)c4ccc(Cl)c(Cl)c4)cc3)cc2-c2ccncc2)cc1Cl` was tested. Which GI50 did it give?
A: 3.63 µM

Q: What about the TGI of the same compound?
A: > 50 µM

Q: `CN(C)C(n1cc2c(c1)-c1ccc(Cl)cc1C(c1ccccc1F)=NC2)n1cc2c(c1)-c1ccc(Cl)cc1C(c1ccccc1F)=NC2` was tested. Which TGI did it give?
A: > 100 µM

Q: How did the TGI turn out when `O=C(CCc1n[nH]c(=S)o1)Nc1ccccc1C(F)(F)F` was run?
A: > 100 µM

Q: For `COc1cc2c(cc1OCCCNC(=O)c1cccc3c(=O)c4ccccc4[nH]c13)N=C[C@@H]1CCCN1C2=O`, which GI50 is on record?
A: < 0.01 µM

Q: For `Cc1ccc(NC(=O)CCc2cc(C(C)(C)C)nc(=S)[nH]2)cc1C`, which TGI is on record?
A: > 100 µM

Q: `Cc1[nH]c2ccccc2c1C(=O)/C=C/c1ccccc1O` was tested. Which TGI did it give?
A: > 100 µM

Q: How did the TGI turn out when `O=C(Nc1nc(=S)c2c(ncn2CCOC(=O)c2ccccc2)[nH]1)c1ccccc1` was run?
A: > 100 µM

Q: With `COc1ccc(CC2NCCc3c2[nH]c2ccccc32)cc1` (stereo not given) as the compound, how does the TGI read?
A: > 100 µM

Q: With `CCOc1ccc(NC(=O)CC#N)cc1` as the compound, how does the TGI read?
A: > 100 µM

Q: `O=C(/C=C/c1cccc2ccccc12)c1ccccc1Cl` was tested. Which TGI did it give?
A: 17.2 µM

Q: How did the TGI turn out when `Cc1ccc(/C=C/C(=O)c2sc(-c3nc(C)c(C(=O)/C=C/c4ccc(C)cc4)s3)nc2C)cc1` was run?
A: > 100 µM

Q: `O=C1/C(=C/c2ccc(Cl)cc2)CCC1CCN1CCOCC1` (stereo not given) was tested. Which TGI did it give?
A: > 100 µM

Q: Which GI50 does the source give for `CCC[CH2][Sn]([Cl])([CH2]CCC)[CH2]CCC` here?
A: 0.0288 µM

Q: What about the TGI of the same compound?
A: 0.225 µM

Q: With `O=c1ccn([C@H]2CSC[C@@H](CO)C2)c(=O)[nH]1` as the compound, how does the TGI read?
A: > 100 µM

Q: Which TGI does the source give for `C1CN2CCN3CCN4CCN1[P+]243` here?
A: > 100 µM

test system: UO-31 renal; assay: NCI tumour cell line growth inhibition, 48 h

Q: With `CN(C)CC[PH+](c1ccccc1)c1ccccc1.CN(C)CC[PH+](c1ccccc1)c1ccccc1.[Cl-].[Pd+2]` as the compound, how does the GI50 read?
A: > 100 µM

Q: What about the TGI of the same compound?
A: > 100 µM

Q: With `Cc1nn(-c2ccc(Cl)cc2)c2nc3c(nc12)C(=O)c1ccccc1-3` as the compound, how does the GI50 read?
A: > 100 µM

Q: What about the TGI of the same compound?
A: > 100 µM

Q: How did the TGI turn out when `O=C(c1ccccc1Br)C(F)(F)F` was run?
A: > 100 µM

Q: `COc1ccc(NC(=O)/C(Cc2cc(=O)oc3cc(O)ccc23)=N\NC(C)(C)C)c(OC)c1` was tested. Which TGI did it give?
A: > 100 µM

Q: For `O=C1/C(=C/c2ccc3c(c2)OCO3)SC2C=Nc3ccccc3N12` (stereo not given), which TGI is on record?
A: > 100 µM

Q: How did the TGI turn out when `CCOc1ccc(NC(=O)C(=O)CC(=O)c2c(C)n([O-])c3ccccc3[n+]2=O)cc1` was run?
A: > 100 µM

Q: Which TGI does the source give for `Cc1cc(Cl)ccc1NC(=O)C(=O)Cc1nc2ccccc2o1` here?
A: > 100 µM

Q: For `OCC1OC(c2nc(C3=NCCCN3)cs2)C(O)C1O` (stereo not given), which TGI is on record?
A: > 100 µM

Q: `O=C1C=CC(=O)c2cc3cc(CBr)ccc3cc21` was tested. Which GI50 did it give?
A: 3.59 µM

Q: What about the TGI of the same compound?
A: > 100 µM

Q: With `CCC(C)COC(=O)c1ccc(N=Cc2ccc(C=Nc3ccc(C(=O)OCC(C)CC)cc3)cc2)cc1` (stereo not given) as the compound, how does the TGI read?
A: > 100 µM

Q: Which GI50 does the source give for `COc1cc(F)ccc1-c1ncnc(Nc2cccc(CS(C)(=N)=O)c2)n1` (stereo not given) here?
A: 0.528 µM

Q: What about the TGI of the same compound?
A: > 100 µM

Q: How did the TGI turn out when `Cc1cc(N(CCC#N)CCC#N)ccc1N=Nc1ccc(C(=O)O)cc1` was run?
A: > 100 µM

Q: For `[Cl][Hg][c]1cc[c]([Hg][Cl])o1`, which GI50 is on record?
A: 1.98 µM

Q: And the TGI?
A: 3.96 µM

Q: How did the TGI turn out when `CN(C)CC1CCCC/C1=N/OC(=O)c1ccc(Cl)cc1` (stereo not given) was run?
A: > 100 µM

Q: How did the TGI turn out when `N#CC(C(=O)C(=O)C(C#N)c1ccc(Br)cc1)c1ccc(Br)cc1` (stereo not given) was run?
A: 29.9 µM

Q: `COc1cccc(C2=NC(C(C)C)CO2)c1` (stereo not given) was tested. Which TGI did it give?
A: > 100 µM

Q: Which GI50 does the source give for `O=C1/C(=C/c2cccc(Cl)c2Cl)N=C(c2ccccc2)N1C1CC1` here?
A: 28.5 µM

Q: What about the TGI of the same compound?
A: > 50 µM

Q: How did the TGI turn out when `Cc1c2c(C#N)nccc2c(C)c2c1c1ccccc1n2Cc1ccccc1` was run?
A: > 100 µM

Q: Which results are given for `COc1ccc(-c2nn(-c3ccc(NC(=O)c4ccc(Cl)c(Cl)c4)cc3)cc2-c2ccncc2)cc1Cl`?
A: GI50: 2.07 µM; TGI: > 50 µM

Q: How did the TGI turn out when `CN(C)C(n1cc2c(c1)-c1ccc(Cl)cc1C(c1ccccc1F)=NC2)n1cc2c(c1)-c1ccc(Cl)cc1C(c1ccccc1F)=NC2` was run?
A: > 100 µM

Q: `CCCc1nc(NC#N)nc(C(=O)Nc2ccccc2)c1CC` was tested. Which TGI did it give?
A: > 100 µM

Q: `O=C(CCc1n[nH]c(=S)o1)Nc1ccccc1C(F)(F)F` was tested. Which TGI did it give?
A: > 100 µM

Q: How did the TGI turn out when `COc1cc2c(cc1OCCCNC(=O)c1cccc3c(=O)c4ccccc4[nH]c13)N=C[C@@H]1CCCN1C2=O` was run?
A: 16.9 µM

Q: How did the TGI turn out when `Cc1ccc(NC(=O)CCc2cc(C(C)(C)C)nc(=S)[nH]2)cc1C` was run?
A: > 100 µM

Q: Which TGI does the source give for `Cc1[nH]c2ccccc2c1C(=O)/C=C/c1ccccc1O` here?
A: > 100 µM

Q: `O=C(Nc1nc(=S)c2c(ncn2CCOC(=O)c2ccccc2)[nH]1)c1ccccc1` was tested. Which TGI did it give?
A: > 100 µM

Q: Which TGI does the source give for `COc1ccc(CC2NCCc3c2[nH]c2ccccc32)cc1` (stereo not given) here?
A: > 100 µM

Q: `CCOc1ccc(NC(=O)CC#N)cc1` was tested. Which TGI did it give?
A: > 100 µM

Q: How did the TGI turn out when `O=C(/C=C/c1cccc2ccccc12)c1ccccc1Cl` was run?
A: 28 µM
